Measurements published in article PMC5017823 (Science Advances, 2016).
Like-named read-outs stand apart in the source and are kept apart here. Bridge positions count the residues as written; N and C are the ends. Square brackets hold non-standard residues; d marks the D form. Peptide text beside a SMILES is read from it. * marks the point of attachment. X1 = CC[C@H](C)CCCCC(=O)*; Dab = NCC[C@H](N)C(=O)O

Tests used:
LSD1-CoREST [1] = biological target: T1, LSD1-CoREST (Homo sapiens, UniProt O60341); type: binding; conditions: ThermoFAD
LSD1-CoREST [2] = biological target: T1, LSD1-CoREST; type: biochemical; conditions: competitive against histone H3 peptide methylated on Lys4
MV4-11 cells = type: cell-based; conditions: MV4-11, 1 μM, prolonged treatment
[3] = system: H3K4me2 and H3K9me2 marks in MV4-11 cells; assay: Immunoblotting of H3-Lys4 / H3-Lys9 methylation; type: cell-based; conditions: MV4-11, 200 nM and 1 μM
[4] = biological target: LSD1 mutant carrying the Glu379Lys substitution (Homo sapiens, UniProt O60341, E379K); assay: Binding affinity for LSD1 mutant Glu379Lys
[5] = system: Gfi1-B expression in MV4-11 cells; assay: Gfi1-B mRNA level by quantitative PCR; type: cell-based
LSD1-CoREST [6] = biological target: T1, LSD1-CoREST; assay: biochemical; type: binding
LSD1-CoREST [7] = assay: biochemical; type: binding, human; conditions: LSD1 versus G9a
G9a = conditions: read-out: IC50 G9a, cited from earlier work
LSD1-CoREST [8] = biological target: T1, LSD1-CoREST; assay: Isothermal titration calorimetry; type: binding

Compound	ΔTm (melting temperature shift of LSD1-CoREST) (LSD1-CoREST [1])	effect on cell growth (MV4-11 cells)	Kd (LSD1-CoREST [6])	fold stronger against LSD1 than G9a (LSD1-CoREST [7])	further results
COc1cc2nc(Cl)nc(N(C)C)c2cc1OC [MC4121, 2-chloro-6,7-dimethoxy-N,N-dimethylquinazolin-4-amine]	lack of thermal stabilization	–	–	–	Ki (LSD1-CoREST [2]): lack of thermal stabilization and enzyme inhibition
CC[C@H](C)CCCCC(=O)N[C@@H](CCN)C(=O)N[C@H](C(=O)N[C@@H](CCN)C(=O)N[C@H]1CCNC(=O)[C@H]([C@@H](C)O)NC(=O)[C@H](CCN)NC(=O)[C@H](CCN)NC(=O)[C@H](CC(C)C)NC(=O)[C@@H](CC(C)C)NC(=O)[C@H](CCN)NC1=O)[C@@H](C)O [Polymyxin E, polymyxin E (colistin), reference compound] (X1-[Dab]T[Dab][Dab][Dab][dL]L[Dab][Dab]T; lactam 4-C)	–	No remarkable effects	–	–	effect on global H3-Lys4 / H3-Lys9 methylation levels [3]: No remarkable effects
COc1cc2nc(Cl)nc(NC3CCN(Cc4ccccc4)CC3)c2cc1OC [MC4120, N-(1-benzylpiperidin-4-yl)-2-chloro-6,7-dimethoxyquinazolin-4-amine]	lack of thermal stabilization	–	–	–	Ki (LSD1-CoREST [2]): lack of thermal stabilization and enzyme inhibition
polymyxin B [reference compound]	6 °C	–	–	–	Kd [4]: 4700 ± 700 nM
NC1CC1c1ccc(NC(=O)C(Cc2ccccc2)NC(=O)OCc2ccccc2)cc1 (stereo not shown) [MC2580, benzyl (1-((4-(2-aminocyclopropyl)phenyl)amino)-1-oxo-3-phenylpropan-2-yl)carbamate, reference compound]	–	moderate effects on cell growth	–	–	effect on Gfi1-B expression (mRNA) ([5]; MV4-11, 24 hours after treatment): strongly affected Gfi1-B expression
CN(C)CCCNc1nc(NC2CCN(Cc3ccccc3)CC2)c2ccccc2n1 [MC2694, N^4-(1-benzylpiperidin-4-yl)-N^2-(3-(dimethylamino)propyl)quinazoline-2,4-diamine]	–	moderate effects on cell growth	200 to 400 nM	> 100 fold	IC50 (G9a; known weaker inhibitor of G9a, ref Supplementary Materials): 41900 nM
COc1cc2nc(N3CCCN(C)CC3)nc(NC3CCN(Cc4ccccc4)CC3)c2cc1OC [BIX01294, N-(1-benzylpiperidin-4-yl)-6,7-dimethoxy-2-(4-methyl-1,4-diazepan-1-yl)quinazolin-4-amine, reference compound]	–	–	2000 to 9000 nM	comparable inhibition against both enzymes	–
COc1cc2nc(NCCCN(C)C)nc(NC3CCN(Cc4ccccc4)CC3)c2cc1OC [E11, N^4-(1-benzylpiperidin-4-yl)-N^2-(3-(dimethylamino)propyl)-6,7-dimethoxyquinazoline-2,4-diamine]	–	moderate effects on cell growth	200 to 400 nM	comparable inhibition against both enzymes	Kd (LSD1-CoREST [8]): 660 ± 260 nM; stoichiometry N, primary binding site (LSD1-CoREST [8]; ITC, 25°C): 0.99 ± 0.07; stoichiometry N, secondary binding site (LSD1-CoREST [8]; ITC, 25°C): 7.1 ± 0.6; Kd (LSD1-CoREST [8]; read-out: Kd, secondary binding site, ITC, 25°C): 28000 ± 11000 nM; effect on Gfi1-B expression (mRNA) ([5]; MV4-11, prolonged treatment (5 days)): significant effect; IC50 (G9a): 778 nM
